species: Homo sapiens; assay: Compound was tested for its in vitro activity in the inhibition of platelet aggregation using human platelet rich plasma; format: functional

| SMILES | IC50 [nM] |
| --- | --- |
| Cc1cccc(S(=O)(=O)N[C@@H](CNC(=O)C[C@@H]2C[C@H](c3ccc(C(=N)N)cc3)N(C(C)C)O2)C(=O)O)c1 | 140 |
| Cc1ccccc1S(=O)(=O)N[C@@H](CNC(=O)C[C@@H]1C[C@H](c2ccc(C(=N)N)cc2)N(C)O1)C(=O)O | 58 |
| CCCCOC(=O)N[C@@H](CNC(=O)C[C@@H]1C[C@H](c2ccc(C(=N)N)cc2)N(C)O1)C(=O)O | 164 |
| Cc1cccc(S(=O)(=O)N[C@@H](CNC(=O)C[C@@H]2C[C@H](c3ccc(C(=N)N)cc3)N(Cc3ccccc3)O2)C(=O)O)c1 | 190 |
| Cc1cccc(S(=O)(=O)N[C@@H](CNC(=O)C[C@@H]2C[C@H](c3ccc(C(=N)N)cc3)N(c3ccccc3)O2)C(=O)O)c1 | 530 |

More lines, in order of falling IC50, values ahead:

| IC50 [nM] | SMILES |
| --- | --- |
| 1500 | Cc1cccc(S(=O)(=O)N[C@@H](CNC(=O)C[C@H]2C[C@H](c3ccc(C(=N)N)cc3)N(C)O2)C(=O)O)c1 |
| 84 | Cc1noc(C)c1S(=O)(=O)N[C@@H](CNC(=O)C[C@@H]1C[C@H](c2ccc(C(=N)N)cc2)N(C)O1)C(=O)O |
| 28 | Cc1cccc(S(=O)(=O)N[C@@H](CNC(=O)C[C@@H]2C[C@H](c3ccc(C(=N)N)cc3)N(C)O2)C(=O)O)c1 |

Reference: ChEMBL document CHEMBL1131698, “Platelet glycoprotein IIb/IIIa receptor antagonists derived from isoxazolidines” (Bioorg Med Chem Lett, 1999)
